For data set [1] the following is noted: cited from earlier work.
For data set [2] the following is noted: Alzheimer's disease patients; Bodick et al. 1997; cited from earlier work.
The conditions of data set [3]: human, in vivo; cited from earlier work.
In a further data set the target is T1, Human M4 (Homo sapiens, UniProt P08173).
T1 construct: expressed in transfected cells
T1 sequence (P08173 1-479): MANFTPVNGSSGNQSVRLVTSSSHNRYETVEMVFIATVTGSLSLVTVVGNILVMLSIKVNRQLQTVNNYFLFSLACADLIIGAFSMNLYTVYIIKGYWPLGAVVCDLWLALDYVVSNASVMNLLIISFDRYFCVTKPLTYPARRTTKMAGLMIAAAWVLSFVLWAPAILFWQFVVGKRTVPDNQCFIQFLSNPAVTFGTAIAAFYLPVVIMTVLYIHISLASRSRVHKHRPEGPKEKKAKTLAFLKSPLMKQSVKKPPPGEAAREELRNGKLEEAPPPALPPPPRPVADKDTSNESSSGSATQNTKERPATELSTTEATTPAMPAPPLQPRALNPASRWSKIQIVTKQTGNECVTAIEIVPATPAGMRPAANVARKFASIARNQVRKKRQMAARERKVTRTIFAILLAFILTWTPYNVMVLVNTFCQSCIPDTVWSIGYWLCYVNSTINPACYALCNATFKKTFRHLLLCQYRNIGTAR
Briefly: mAChR M4 cell-based functional assay (calcium flux, PAM mode). To be noted: hM4-Gqi5 CHO-K1 cells; for Emax at 30 µM: CHO-K1, % ACh maximum at 30 μM; for EC50: concentration-dependent increase in the EC20 acetylcholine response. Put shortly:
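PAM potency (EC50) and Emax came from four-parameter fits of the rise in EC20 acetylcholine-evoked calcium signal (Fluo-4, FDSS, 1 Hz). Human M4/Gqi5 CHO-K1 stable line; 11-point 1:3 compound series preceded ACh EC20 addition at 144 s, with EC80 ACh added at 230 s.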
On the technique in general: Calcium assays in cells follow changes in intracellular calcium, usually with a dye or a luminescent sensor.

For the compound `CCCCCCOc1nsnc1C1=CCCN(C)C1` [xanomeline], the “activity in animal models with similar profiles to known antipsychotic drugs” value in data set [1] (Bymaster et al., Shannon et al.) is “active”. The catalepsy result in data set [1] (animal models) is listed as “without causing catalepsy”. The “psychotic behavioral symptoms such as delusions, suspiciousness, vocal outbursts, and hallucinations” value in data set [2] is reported as “reduce psychotic behavioral symptoms”.

For `Nc1c2c(nc3ccccc13)CCCC2` [tacrine], the “elevated liver transaminases observed in patients” value in data set [3] was “about 30 % of patients”.

With `Cc1cc(=O)n2nc(N3CCC(Oc4ccc5c(c4)C(=O)N(C)CC5)CC3)c(C)cc2n1` [Compound 73, 2,8-dimethyl-7-(4-((2-methyl-1-oxo-1,2,3,4-tetrahydroisoquinolin-7-yl)oxy)piperidin-1-yl)-4H-pyrimido[1,2-b]pyridazin-4-one], at Human M4, the Emax (usually the greatest response seen or fitted, relative to the assay's reference) at 30 µM came out at 85% and the EC50 (in general, the concentration giving half of the maximal effect) was 2630 nM.

In the case of `Cc1cc2nccc(=O)n2nc1N1CC[C@H](Oc2ccc3c(c2)OCCO3)C[C@H]1C` (stereo in doubt) [Compound 107, 7-((2R,4S)-4-((2,3-dihydrobenzo[b][1,4]dioxin-6-yl)oxy)-2-methylpiperidin-1-yl)-8-methyl-4H-pyrimido[1,2-b]pyridazin-4-one], the Emax at 30 µM on Human M4 was found to be 55%.

Take `[2H]C1([2H])Oc2ccc(O[C@H]3CCN(c4nn5c(=O)cc(COC)nc5c(C)c4C)C[C@H]3F)cc2OC1([2H])[2H]` [Compound 122, 7-((3R,4S)-4-((2,3-dihydrobenzo[b][1,4]dioxin-6-yl-2,2,3,3-d4)oxy)-3-fluoropiperidin-1-yl)-2-(methoxymethyl)-8,9-dimethyl-4H-pyrimido[1,2-b]pyridazin-4-one]: on Human M4, the Emax at 30 µM amounted to 111% and the EC50 is 94 nM.

As for `[2H]C1([2H])Oc2ccc(OC3CCN(c4nn5c(=O)ccnc5c(C)c4C4CC4)CC3)cc2OC1([2H])[2H]` [Compound 105, 8-cyclopropyl-7-(4-((2,3-dihydrobenzo[b][1,4]dioxin-6-yl-2,2,3,3-d4)oxy)piperidin-1-yl)-9-methyl-4H-pyrimido[1,2-b]pyridazin-4-one], at Human M4, the Emax at 30 µM worked out at 81% and the EC50 came out at 1700 nM.

Take `Cc1ccc(OC2CCN(c3nn4c(=O)cc(C(F)F)nc4c(C)c3C)CC2)cc1` [Compound 85, 2-(difluoromethyl)-8,9-dimethyl-7-(4-(p-tolyloxy)piperidin-1-yl)-4H-pyrimido[1,2-b]pyridazin-4-one]: at Human M4, the Emax at 30 µM amounted to 101% and the EC50 amounted to 385 nM.

On to `[2H]C1(Oc2ccc3c(c2)OCO3)CCN(c2nn3c(=O)ccnc3cc2C)CC1` [Compound 68, 7-(4-(benzo[d][1,3]dioxol-5-yloxy)piperidin-1-yl-4-d)-8-methyl-4H-pyrimido[1,2-b]pyridazin-4-one], for which, on Human M4, the maximal response (Emax) at 30 µM was 91% and the EC50 was 288 nM.

Consider `[2H]C1(Oc2ccc3c(c2)OCCCO3)CCN(c2nn3c(=O)cc(C(F)F)nc3cc2C)CC1` [Compound 67, 2-(difluoromethyl)-7-(4-((3,4-dihydro-2H-benzo[b][1,4]dioxepin-7-yl)oxy)piperidin-1-yl-4-d)-8-methyl-4H-pyrimido[1,2-b]pyridazin-4-one], for which, on Human M4, the Emax at 30 µM is 109% and the EC50 is 17 nM.

As to `[2H]C1(Oc2ccc3c(c2)OCO3)CCN(c2nn3c(=O)cc(C(F)(F)F)nc3cc2C)CC1` [Compound 63, 7-(4-(benzo[d][1,3]dioxol-5-yloxy)piperidin-1-yl-4-d)-8-methyl-2-(trifluoromethyl)-4H-pyrimido[1,2-b]pyridazin-4-one], at Human M4, the Emax at 30 µM came out at 102% and the EC50 was determined as 342 nM.

In the case of `[2H]C1(Oc2ccc3c(c2)OC([2H])([2H])C([2H])([2H])O3)CCN(c2nn3c(=O)cc(CC4CCCC4)nc3c(C)c2C)CC1` [Compound 101, 2-(cyclopentylmethyl)-7-(4-((2,3-dihydrobenzo[b][1,4]dioxin-6-yl-2,2,3,3-d4)oxy)piperidin-1-yl-4-d)-8,9-dimethyl-4H-pyrimido[1,2-b]pyridazin-4-one], on Human M4, the Emax at 30 µM worked out at 81% and the EC50 was found to be 1470 nM.

In the case of `[2H]C1([2H])Oc2ccc(O[C@H]3CCN(c4nn5c(=O)ccnc5cc4C)[C@H](C)C3)cc2OC1([2H])[2H]` [Compound 129, 7-((2R,4S)-4-((2,3-Dihydrobenzo[b][1,4]dioxin-6-yl-2,2,3,3-d4)oxy)-2-methylpiperidin-1-yl)-8-methyl-4H-pyrimido[1,2-b]pyridazin-4-one], at Human M4, the maximum response (Emax) at 30 µM was found to be 120% and the EC50 came out at 81 nM.

Regarding `[2H]C1([2H])Oc2ccc(OC3CCN(c4nn5c(=O)c(F)c(C)nc5cc4C)CC3)cc2OC1([2H])[2H]` [Compound 15, 7-(4-((2,3-Dihydrobenzo[b][1,4]dioxin-6-yl-2,2,3,3-d4)oxy)piperidin-1-yl)-3-fluoro-2,8-dimethyl-4H-pyrimido[1,2-b]pyridazin-4-one], at Human M4, the Emax at 30 µM was determined as 80% and the concentration giving a half-maximal response (EC50) stood at 20 nM.

For `COc1c(C)c(N2CCC(Oc3ccc4c(c3)OCCO4)CC2)nn2c(=O)ccnc12` [Compound 126, 7-(4-((2,3-Dihydrobenzo[b][1,4]dioxin-6-yl)oxy)piperidin-1-yl)-9-methoxy-8-methyl-4H-pyrimido[1,2-b]pyridazin-4-one], at Human M4, the Emax at 30 µM stood at 109% and the EC50 is 421 nM.

On to `[2H]C1([2H])Oc2ccc(OC3CCN(c4nn5c(=O)c(C6CC6)cnc5cc4C)CC3)cc2OC1([2H])[2H]` [Compound 30, 3-cyclopropyl-7-(4-((2,3-dihydrobenzo[b][1,4]dioxin-6-yl-2,2,3,3-d4)oxy)piperidin-1-yl)-8-methyl-4H-pyrimido[1,2-b]pyridazin-4-one], for which, on Human M4, the Emax at 30 µM was 80% and the EC50 was determined as 73 nM.

For the compound `[2H]C1([2H])Oc2ccc(O[C@H]3CCN(c4nn5c(=O)ccnc5c(C)c4C)C[C@H]3F)cc2OC1([2H])[2H]` [Compound 119, 7-((3R,4S)-4-((2,3-dihydrobenzo[b][1,4]dioxin-6-yl-2,2,3,3-d4)oxy)-3-fluoropiperidin-1-yl)-8,9-dimethyl-4H-pyrimido[1,2-b]pyridazin-4-one], on Human M4, the maximum response (Emax) at 30 µM was found to be 114% and the EC50 was 51 nM.

Take `[2H]C1([2H])Oc2ccc(OC3CCN(c4nn5c(=O)cc(C6CC6)nc5cc4C)CC3)cc2OC1([2H])[2H]` [Compound 10, 2-Cyclopropyl-7-(4-((2,3-dihydrobenzo[b][1,4]dioxin-6-yl-2,2,3,3-d4)oxy)piperidin-1-yl)-8-methyl-4H-pyrimido[1,2-b]pyridazin-4-one]: at Human M4, the Emax at 30 µM came out at 73% and the EC50 is 87 nM.

With `Cc1cc2nccc(=O)n2nc1N1CC[C@@H](Oc2ccc3c(c2)OCO3)[C@H](F)C1` [Compound 53, 7-((3R,4R)-4-(benzo[d][1,3]dioxol-5-yloxy)-3-fluoropiperidin-1-yl)-8-methyl-4H-pyrimido[1,2-b]pyridazin-4-one], at Human M4, the Emax at 30 µM worked out at 86% and the EC50 amounted to 160 nM.

Consider `Cc1cc(=O)n2nc(N3CCC(Oc4ccc5c(c4)C(=O)NCC5)CC3)c(C)cc2n1` [Compound 72, 2,8-dimethyl-7-(4-((1-oxo-1,2,3,4-tetrahydroisoquinolin-7-yl)oxy)piperidin-1-yl)-4H-pyrimido[1,2-b]pyridazin-4-one], for which, on Human M4, the Emax at 30 µM is 74% and the EC50 was 1540 nM.
